Experiments:
Caco-2 cells [1] = assay: Mitochondrial membrane potential assay by flow cytometry (DilC1); type: cell-based, human; conditions: Caco-2, 48 h; 3a 5.0 µM, 3b 10.2 µM
Procedure: Caco-2 cells were seeded in 75 cm^2 flasks at a density of 1 × 10^4 cells/cm^2 and 24 h post-seeding medium was replaced with medium containing drug panel and incubated for 48 h. Then. cells were washed twice and resuspended in PBS at a concentration of 10^6 cells/mL before incubation with 5 µL of 10 µM 1,1′,3,3,3′-hexamethylindodicarbo-cyanine iodide (DilC1).

Caco-2 cells [2] = assay: Propidium iodide staining of DNA content and cell cycle analysis; type: cell-based, human; conditions: 3a 5.0 µM, 3b 10.2 µM; for cells in G0-G1 phase, 40 °C / cells in G2-M phase, 40 °C / cells in S phase, 40 °C: Caco-2, 1 h at 40 °C plus 47 h at 37 °C; for cell cycle progression: Caco-2, 48 h; for cells in G0-G1 phase, 37 °C / cells in G2-M phase, 37 °C / cells in S phase, 37 °C: Caco-2, 48 h at 37 °C
Procedure: Caco-2 cells were seeded in 25 cm^2 flasks at a density of 1 × 10^4 cells/cm^2 and 24 h post-seeding, were exposed to drug panel for 48 h. Cells were fixed as described by Sánchez-de-Diego et al. before staining them with 50 μg/mL PI solution.

Caco-2 cells [3] = assay: Intracellular ROS levels, dichlorofluorescein assay; type: cell-based, human; conditions: for intracellular ROS levels, 1 h and 3 h: Caco-2, treated for 1 h and 3 h at IC50 values; for intracellular ROS levels, 24 h: Caco-2, treated for 24 h with IC50 values
Procedure: Caco-2 cells were seeded in 96-wells plate at a density of 4 × 10^3 cells/well and intracellular ROS levels were determined with the dichlorofluorescein assay. Cells were exposed to drug panel for 1, 3 and 24 h and then incubated with 20 µM 2′-7′-dichlorofluorescein diacetate (DCFH-DA) (Merck KGaA, Darmstadt, Germany) in DMEM. The generation of oxidised derivative DCF was monitored by measuring the increase of fluorescence for 1 h, at an emission wavelength of 520 nm and excitation of 485 nm, with a FLUOstar Omega (BMG Labtech, Ortenberg, Germany) multiplate reader. Results were expressed as percentage of fluorescence respect to control, considering fluorescence intensity as a reflection of intracellular ROS levels.

Human fibroblast cells = assay: MTT cytotoxicity assay on fibroblasts; type: cell-based; conditions: for fibroblasts viability when treated at the IC50 value in Caco-2: 3a 2.5 µM, 3b 5.1 µM, 2a 12.3 µM, 2b 10.5 µM; for Selectivity Index (SI): IC50 fibroblasts/IC50 Caco-2; for IC50: MTT, mean ± SE
Procedure: Human Caco-2 cell line (TC7 clone) was kindly provided by Dr. Edith Brot-Laroche (Université Pierre et Marie Curie-Paris 6, UMR S 872, Les Cordeliers, France). Human fibroblast cells were kindly provided by Dr. Julio Montoya (Unidad de Bioquímica, Facultad de Veterinaria, Universidad de Zaragoza, Spain). Caco-2 cells (passages 40–70) and fibroblasts (passages 10–30) were maintained in a humidified atmosphere of 5% CO2 at 37 °C. Cells were grown in Dulbecco’s Modified Eagles medium (DMEM) (Gibco Invitrogen, Paisley, UK) supplemented with 20% fetal bovine serum (FBS), 1% non-essential amino acids, 1% penicillin (1000 U/mL), 1% streptomycin (1000 μg/mL) and 1% amphotericin (250 U/mL). The cells were passaged enzymatically with 0.25% trypsin-1 mM EDTA. Caco-2 cells were sub-cultured on 25 cm^2 plastic flasks at a density of 1.2 × 10^4 cells/cm^2, while fibroblasts were sub-cultured on 75 cm^2 plastic flasks at a density of 1 × 10^4 cells/cm^2. Culture medium was replaced every 2 days.
Gold complex was diluted in dimethyl sulfoxide (DMSO) to a stock solution at 20 mM and then re-diluted to a working solution at 2.5 mM before diluting it in cell culture medium to treat cells at desired concentrations.
For cytotoxicity screening assays, Caco-2 cells were seeded in 96-well plates at a density of 4 × 10^3 cells/well. Culture medium was replaced with medium containing drug panel 24 h post-seeding and cells were incubated for 72 h. In fibroblasts, culture medium containing metal gold complexes was added 10 days post-seeding. Antiproliferative effect was measured with MTT assay as previously described by Mármol et al.. Absorbance at 540/620 nm was measured with SPECTROstar Nano (BMG Labtech). To determine the selectivity index (SI) the IC50 value in fibroblasts was divided by IC50 value in Caco-2, obtaining a ratio cancerous/normal cells toxicity.

[4] = test system: caspase-3 in Caco-2 cells; assay: Determination of active caspase-3 by flow cytometry; type: cell-based, human; conditions: Caco-2, 48 h; 3a 5.0 µM, 3b 10.2 µM
Procedure: (§1) Caco-2 cells were seeded in 75 cm^2 flask at a density of 1 × 10^4 cells/cm^2 and, 24 h later, exposed to drug panel for 48 h. Then cells were collected and processed following instructions by Sánchez-de-Diego et al. Finally, 50 µL of every sample were incubated with 5 µL anti-active caspase-3 (BD Pharmigen, Clone C92-605) and 5 µL p53 antibody (Miltenyi, Clone REA609).

p53 in Caco-2 cells = assay: Determination of p53 by flow cytometry; type: cell-based, human; conditions: Caco-2, 48 h, versus non-treated cells
Procedure: as §1

[5] = Distribution coefficient (logD7.4), shake-flask n-octanol/buffered water; type: physicochemical; conditions: n-octanol/phosphate buffered saline pH 7.4, shake-flask
Procedure: The n-octanol-water coefficients of the phosphane derivatives were determined as previously reported using a shake-flask method. Briefly: Buffered-saline distilled water (100 mL, phosphate buffer [PO4^3−] = 10 mM, [NaCl] = 0.15 M, pH 7.4) and n-octanol (100 mL) were shaken together for 72 h to allow saturation of both phases. 1 mg of the complexes was dissolved in 5 mL of the aqueous phase and 5 mL of the organic phase were added, mixing for 10 min. The concentration of the complexes in the organic and aqueous phases were then determined using UV absorbance spectroscopy. LogD7.4 = log{[compound(organic phase)]/[compound(aqueous phase)]}.
The lipophilicity can be measured by the partition coefficient water/n-octanol, logD, by experimental procedures such as the shake flask method, which affords the distribution of the drug between an equal amount of n-octanol and water (or buffered aqueous solution).

Compound | mitochondrial depolarisation (cells with reduced ΔΨm) (Caco-2 cells [1]) | cells in G0-G1 phase, 40 °C (Caco-2 cells [2]) | cells in G2-M phase, 40 °C (Caco-2 cells [2]) | cells in S phase, 40 °C (Caco-2 cells [2]) | cell cycle progression (Caco-2 cells [2]) | cells in G0-G1 phase, 37 °C (Caco-2 cells [2]) | cells in G2-M phase, 37 °C (Caco-2 cells [2]) | cells in S phase, 37 °C (Caco-2 cells [2]) | intracellular ROS levels, 1 h and 3 h (Caco-2 cells [3]) | intracellular ROS levels, 24 h (Caco-2 cells [3]) | fibroblasts viability when treated at the IC50 value in Caco-2 (Human fibroblast cells) | Selectivity Index (SI) (Human fibroblast cells) | IC50 (Human fibroblast cells) | caspase-3 activation (cells with active caspase-3) [4] | p53 accumulation (p53 in Caco-2 cells) | logD7.4 [5]
FC(F)(F)C(F)(F)C(F)(F)C(F)(F)C(F)(F)C(F)(F)CC[N+]12CN3CN(C1)C[P+]([Au-][S]c1ccccn1)(C3)C2.O=S(=O)([O-])C(F)(F)F [Complex 3b, [Au(C5H5NS)(PTA-CH2CH2(CF2)5CF3)](TfO)] | induced mitochondrion depolarisation | 48.1% | 17.2% | 34.7% | increasing amount of cells in G0-G1 phase | 41.4% | 12.5% | 46.1% | did not bring significant changes | significant increase | did not compromise fibroblasts viability | 2.51 | 12.8 ± 1.48 µM | could induce caspase-3 activation | could induce p53 accumulation | 0.44
CCCCCCCC[N+]12CN3CN(C1)C[P+]([Au-][S]c1ccccn1)(C3)C2.[I-] [Complex 3a, [Au(C5H5NS)(PTA-CH2(CH2)6CH3)]I] | induced mitochondrion depolarisation | 63.7% | 27.78% | 8.56% | increasing amount of cells in G0-G1 phase | 43.3% | 14.4% | 42.4% | did not bring significant changes | significant increase | did not compromise fibroblasts viability | 4.86 | 12.11 ± 0.11 µM | could induce caspase-3 activation | could induce p53 accumulation | 0.35

From paper PMC8698759, “Gold(I) Complexes Bearing Alkylated 1,3,5-Triaza-7-phosphaadamantane Ligands as Thermoresponsive Anticancer Agents in Human Colon Cells” (Biomedicines, 2021)
